Laboratory results published in ChEMBL document CHEMBL4665869, “New thiazolopyrimidine as anticancer agents: Synthesis, biological evaluation, DNA binding, molecular modeling and ADMET study” (Bioorg Med Chem Lett, 2020).
In brackets after ≈: the same amount, converted by molar mass.

Experiments:
A549 = experiment: Growth inhibition of human A549 cells at 10 uM relative to control; assay type: functional; conditions: read-out: GI
A498 = experiment: Growth inhibition of human A498 cells at 10 uM relative to control; assay type: functional; conditions: read-out: GI
SNB-19 = experiment: Growth inhibition of human SNB-19 cells at 10 uM relative to control; assay type: functional; conditions: read-out: GI
HOP-62 = experiment: Growth inhibition of human HOP-62 cells at 10 uM relative to control; assay type: functional; conditions: read-out: GI
CCRF-CEM = experiment: Growth inhibition of human CCRF-CEM cells at 10 uM relative to control; assay type: functional; conditions: read-out: GI
HCC 2998 = experiment: Growth inhibition of human HCC 2998 cells at 10 uM relative to control; assay type: functional; conditions: read-out: GI
UO-31 = experiment: Growth inhibition of human UO-31 cells at 10 uM relative to control; assay type: functional; conditions: read-out: GI
SK-OV-3 = experiment: Growth inhibition of human SK-OV-3 cells at 10 uM relative to control; assay type: functional; conditions: read-out: GI
HL-60(TB) = experiment: Growth inhibition of human HL-60(TB) cells at 10 uM relative to control; assay type: functional; conditions: read-out: GI
U-251 = experiment: Growth inhibition of human U-251 cells at 10 uM relative to control; assay type: functional; conditions: read-out: GI
MDA-MB-468 = experiment: Growth inhibition of human MDA-MB-468 cells at 10 uM relative to control; assay type: functional; conditions: read-out: GI
786-0 = experiment: Growth inhibition of human 786-0 cells at 10 uM relative to control; assay type: functional; conditions: read-out: GI
MDA-MB-435 = experiment: Growth inhibition of human MDA-MB-435 cells at 10 uM relative to control; assay type: functional; conditions: read-out: GI
HT-29 = experiment: Growth inhibition of human HT-29 cells at 10 uM relative to control; assay type: functional; conditions: read-out: GI
OVCAR-8 = experiment: Growth inhibition of human OVCAR-8 cells at 10 uM relative to control; assay type: functional; conditions: read-out: GI
NCI-H522 = experiment: Growth inhibition of human NCI-H522 cells at 10 uM relative to control; assay type: functional; conditions: read-out: GI
NCI/ADR-RES = experiment: Growth inhibition of human NCI/ADR-RES cells at 10 uM relative to control; assay type: functional; conditions: read-out: GI
MCF7 = experiment: Growth inhibition of human MCF7 cells at 10 uM relative to control; assay type: functional; conditions: read-out: GI
KM12 = experiment: Growth inhibition of human KM12 cells at 10 uM relative to control; assay type: functional; conditions: read-out: GI
MOLT-4 = experiment: Growth inhibition of human MOLT-4 cells at 10 uM relative to control; assay type: functional; conditions: read-out: GI
DU-145 = experiment: Growth inhibition of human DU-145 cells at 10 uM relative to control; assay type: functional; conditions: read-out: GI
LOX IMVI = experiment: Growth inhibition of human LOX IMVI cells at 10 uM relative to control; assay type: functional; conditions: read-out: GI
RPMI-8226 = experiment: Growth inhibition of human RPMI-8226 cells at 10 uM relative to control; assay type: functional; conditions: read-out: GI
SNB-75 = experiment: Growth inhibition of human SNB-75 cells at 10 uM relative to control; assay type: functional; conditions: read-out: GI
OVCAR-5 = experiment: Growth inhibition of human OVCAR-5 cells at 10 uM relative to control; assay type: functional; conditions: read-out: GI
Hs-578T = experiment: Growth inhibition of human Hs-578T cells at 10 uM relative to control; assay type: functional; conditions: read-out: GI
SK-MEL-2 = experiment: Growth inhibition of human SK-MEL-2 cells at 10 uM relative to control; assay type: functional; conditions: read-out: GI
UACC-257 = experiment: Growth inhibition of human UACC-257 cells at 10 uM relative to control; assay type: functional; conditions: read-out: GI
HCT-15 = experiment: Growth inhibition of human HCT-15 cells at 10 uM relative to control; assay type: functional; conditions: read-out: GI
NCI-H226 = experiment: Growth inhibition of human NCI-H226 cells at 10 uM relative to control; assay type: functional; conditions: read-out: GI
NCI-H23 = experiment: Growth inhibition of human NCI-H23 cells at 10 uM relative to control; assay type: functional; conditions: read-out: GI
HOP-92 = experiment: Growth inhibition of human HOP-92 cells at 10 uM relative to control; assay type: functional; conditions: read-out: GI
SF-295 = experiment: Growth inhibition of human SF-295 cells at 10 uM relative to control; assay type: functional; conditions: read-out: GI
RXF 393 = experiment: Growth inhibition of human RXF 393 cells at 10 uM relative to control; assay type: functional; conditions: read-out: GI
Malme-3M = experiment: Growth inhibition of human Malme-3M cells at 10 uM relative to control; assay type: functional; conditions: read-out: GI
OVCAR-4 = experiment: Growth inhibition of human OVCAR-4 cells at 10 uM relative to control; assay type: functional; conditions: read-out: GI
SF-539 = experiment: Growth inhibition of human SF-539 cells at 10 uM relative to control; assay type: functional; conditions: read-out: GI
SW-620 = experiment: Growth inhibition of human SW-620 cells at 10 uM relative to control; assay type: functional; conditions: read-out: GI
TK-10 = experiment: Growth inhibition of human TK-10 cells at 10 uM relative to control; assay type: functional; conditions: read-out: GI
MDA-MB-231 = experiment: Growth inhibition of human MDA-MB-231 cells at 10 uM relative to control; assay type: functional; conditions: read-out: GI
COLO 205 = experiment: Growth inhibition of human COLO 205 cells at 10 uM relative to control; assay type: functional; conditions: read-out: GI
HCT-116 = experiment: Growth inhibition of human HCT-116 cells at 10 uM relative to control; assay type: functional; conditions: read-out: GI
SK-MEL-28 = experiment: Growth inhibition of human SK-MEL-28 cells at 10 uM relative to control; assay type: functional; conditions: read-out: GI
NCI-H460 = experiment: Growth inhibition of human NCI-H460 cells at 10 uM relative to control; assay type: functional; conditions: read-out: GI
DNA = experiment: Displacement of methyl green from DNA (unknown origin) assessed as DNA intercalation after 24 hrs by colorimetric assay; assay type: nucleic-acid assay
K562 = experiment: Growth inhibition of human K562 cells at 10 uM relative to control; assay type: functional; conditions: read-out: GI
SF-268 = experiment: Growth inhibition of human SF-268 cells at 10 uM relative to control; assay type: functional; conditions: read-out: GI
UACC-62 = experiment: Growth inhibition of human UACC-62 cells at 10 uM relative to control; assay type: functional; conditions: read-out: GI
SK-MEL-5 = experiment: Growth inhibition of human SK-MEL-5 cells at 10 uM relative to control; assay type: functional; conditions: read-out: GI
BT-549 = experiment: Growth inhibition of human BT-549 cells at 10 uM relative to control; assay type: functional; conditions: read-out: GI
CAKI-1 = experiment: Growth inhibition of human CAKI-1 cells at 10 uM relative to control; assay type: functional; conditions: read-out: GI
SN12C = experiment: Growth inhibition of human SN12C cells at 10 uM relative to control; assay type: functional; conditions: read-out: GI
M14 = experiment: Growth inhibition of human M14 cells at 10 uM relative to control; assay type: functional; conditions: read-out: GI
IGROV-1 = experiment: Growth inhibition of human IGROV-1 cells at 10 uM relative to control; assay type: functional; conditions: read-out: GI
NCI-H322M = experiment: Growth inhibition of human NCI-H322M cells at 10 uM relative to control; assay type: functional; conditions: read-out: GI
ACHN = experiment: Growth inhibition of human ACHN cells at 10 uM relative to control; assay type: functional; conditions: read-out: GI
SR = experiment: Growth inhibition of human SR cells at 10 uM relative to control; assay type: functional; conditions: read-out: GI
T47D = experiment: Growth inhibition of human T47D cells at 10 uM relative to control; assay type: functional; conditions: read-out: GI

In the case of `COc1ccc(/C=C/C2=CC(c3ccc(OC)c(OC)c3)N3C=CSC3=N2)cc1OC` (stereo not drawn), the inhibition of growth at 10 µM (A549) is reported as less than 10%, the inhibition of growth at 10 µM (A498) is reported as 25.6% and the inhibition of growth at 10 µM (SNB-19) is reported as less than 10%. It also gave an inhibition of growth at 10 µM (HOP-62) of less than 10%, an inhibition of growth at 10 µM (CCRF-CEM) of less than 10% and an inhibition of growth at 10 µM (HCC 2998) of less than 10%. It also gave an inhibition of growth at 10 µM (UO-31) of 11.3%, an inhibition of growth at 10 µM (SK-OV-3) of less than 10% and an inhibition of growth at 10 µM (HL-60(TB)) of less than 10%. It also gave an inhibition of growth at 10 µM (U-251) of less than 10%, an inhibition of growth at 10 µM (MDA-MB-468) of less than 10% and an inhibition of growth at 10 µM (786-0) of less than 10%. For the same molecule, the inhibition of growth at 10 µM (MDA-MB-435) was less than 10%, the inhibition of growth at 10 µM (HT-29) was less than 10% and the inhibition of growth at 10 µM (OVCAR-8) was less than 10%. It also gave an inhibition of growth at 10 µM (NCI-H522) of less than 10%, an inhibition of growth at 10 µM (NCI/ADR-RES) of less than 10% and an inhibition of growth at 10 µM (MCF7) of less than 10%. It also gave an inhibition of growth at 10 µM (KM12) of less than 10%, an inhibition of growth at 10 µM (MOLT-4) of less than 10% and an inhibition of growth at 10 µM (DU-145) of less than 10%. For the same molecule, the inhibition of growth at 10 µM (LOX IMVI) was less than 10%, the inhibition of growth at 10 µM (RPMI-8226) was less than 10% and the inhibition of growth at 10 µM (SNB-75) was less than 10%. For the same molecule, the inhibition of growth at 10 µM (OVCAR-5) was less than 10%, the inhibition of growth at 10 µM (Hs-578T) was less than 10% and the inhibition of growth at 10 µM (SK-MEL-2) was less than 10%. It also gave an inhibition of growth at 10 µM (UACC-257) of 12.8%, an inhibition of growth at 10 µM (HCT-15) of less than 10% and an inhibition of growth at 10 µM (NCI-H226) of less than 10%. For the same molecule, the inhibition of growth at 10 µM (NCI-H23) was less than 10%, the inhibition of growth at 10 µM (HOP-92) was less than 10% and the inhibition of growth at 10 µM (SF-295) was less than 10%. For the same molecule, the inhibition of growth at 10 µM (RXF 393) was less than 10%, the inhibition of growth at 10 µM (Malme-3M) was less than 10% and the inhibition of growth at 10 µM (OVCAR-4) was less than 10%. For the same molecule, the inhibition of growth at 10 µM (SF-539) was less than 10%, the inhibition of growth at 10 µM (SW-620) was less than 10% and the inhibition of growth at 10 µM (TK-10) was less than 10%. It also gave an inhibition of growth at 10 µM (MDA-MB-231) of less than 10%, an inhibition of growth at 10 µM (COLO 205) of less than 10% and an inhibition of growth at 10 µM (HCT-116) of less than 10%. The inhibition of growth at 10 µM (SK-MEL-28) was less than 10%, the inhibition of growth at 10 µM (NCI-H460) was less than 10% and the IC50 (DNA) was 30.05 µg/mL (≈ 68.8 µM). For the same molecule, the inhibition of growth at 10 µM (K562) was less than 10%, the inhibition of growth at 10 µM (SF-268) was less than 10% and the inhibition of growth at 10 µM (UACC-62) was less than 10%. The inhibition of growth at 10 µM (SK-MEL-5) was less than 10%, the inhibition of growth at 10 µM (BT-549) was less than 10% and the inhibition of growth at 10 µM (CAKI-1) was less than 10%. It also gave an inhibition of growth at 10 µM (SN12C) of less than 10%, an inhibition of growth at 10 µM (M14) of less than 10% and an inhibition of growth at 10 µM (IGROV-1) of less than 10%. The inhibition of growth at 10 µM (NCI-H322M) was less than 10%, the inhibition of growth at 10 µM (ACHN) was less than 10% and the inhibition of growth at 10 µM (SR) was 13.8%. For the same molecule, the inhibition of growth at 10 µM (T47D) was less than 10%.
